Data: ChEMBL document CHEMBL1156187, “Discovery of a selective small-molecule melanocortin-4 receptor agonist with efficacy in a pilot study of sexual dysfunction in humans” (J Med Chem, 2010)
Active and inactive are the calls of the source. The rule behind the calls is not given here.

Assays:
[1] = target: T1, Melanocortin receptor 4 (Homo sapiens, UniProt P32245); assay: Agonist activity at human recombinant MC4 receptor expressed in CHO cells by cAMP responsive beta lactamase reporter gene assay; assay type: functional, cell-based
[2] = target: T2, Melanocortin receptor 3 (Homo sapiens, UniProt P41968); assay: Agonist activity at human recombinant MC3 receptor expressed in CHO cells assessed as cAMP accumulation by enzyme fragment complementation assay; assay type: functional, cell-based
[3] = target: T3, Melanocyte-stimulating hormone receptor (Homo sapiens, UniProt Q01726); assay: Agonist activity at human recombinant MC1 receptor expressed in HEK293 cells assessed as cAMP accumulation by enzyme fragment complementation assay; assay type: functional, cell-based
Target sequence in this assay (Q01726 whole entry, the tested form may be a part): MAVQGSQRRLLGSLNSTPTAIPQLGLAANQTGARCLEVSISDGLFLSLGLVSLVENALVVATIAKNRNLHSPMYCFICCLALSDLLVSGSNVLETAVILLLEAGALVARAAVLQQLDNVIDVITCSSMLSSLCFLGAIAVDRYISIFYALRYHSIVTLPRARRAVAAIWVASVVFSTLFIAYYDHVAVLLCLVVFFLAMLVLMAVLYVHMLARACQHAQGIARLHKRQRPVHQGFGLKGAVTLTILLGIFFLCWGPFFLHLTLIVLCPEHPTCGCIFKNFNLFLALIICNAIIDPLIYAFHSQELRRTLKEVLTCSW

[4] = target: T3, Melanocyte-stimulating hormone receptor; assay: Agonist activity at human recombinant MC1 receptor expressed in HEK293 cells assessed as cAMP accumulation by enzyme fragment complementation assay relative to alpha melanocyte-stimulating hormone; assay type: functional, cell-based
Target sequence in this assay (Q01726 whole entry, looked up, the tested form may be a part): as the sequence (Q01726 whole entry, the tested form may be a part) above

[5] = target: T4, Melanocortin receptor 5 (Homo sapiens, UniProt P33032); assay: Agonist activity at human recombinant MC5 receptor expressed in HEK293 cells assessed as cAMP accumulation by beta lactamase reporter gene assay relative to alpha melanocyte-stimulating hormone; assay type: functional, cell-based
[6] = target: Voltage-gated inwardly rectifying potassium channel KCNH2 (Homo sapiens, UniProt Q12809); assay: Displacement of [3H]dofetilide from human ERG expressed in CHO cells by patch clamp method
[7] = target: T1, Melanocortin receptor 4; assay: Displacement of [125I]-MT-II from human recombinant MC4 receptor expressed in CHO cells by scintillation counting
[8] = target: T2, Melanocortin receptor 3; assay: Agonist activity at human recombinant MC3 receptor expressed in CHO cells assessed as cAMP accumulation by enzyme fragment complementation assay relative to […]; assay type: functional, cell-based
[9] = target: T4, Melanocortin receptor 5; assay: Agonist activity at human recombinant MC5 receptor expressed in HEK293 cells assessed as cAMP accumulation by beta lactamase reporter gene assay; assay type: functional, cell-based
[10] = Lipophilicity, log D at pH 7.4; assay type: physicochemical; conditions: buffer
[11] = Intrinsic clearance in human liver microsome measured per mg of protein; assay type: ADME; conditions: liver microsomes
[12] = Volume of distribution at steady state in rat at 1 mg/kg, iv; assay type: ADME, organism-based; parameters: dose 1 mg/kg, route intravenous; conditions: in vivo, read-out: Vdss
[13] = Half life in rat at 1 mg/kg, iv; assay type: ADME, organism-based; parameters: dose 1 mg/kg, route intravenous; conditions: in vivo
[14] = Oral bioavailability in rat at 1 mg/kg; assay type: ADME, organism-based; conditions: in vivo
[15] = Clearance in dog plasma at 0.5 mg/kg, iv; assay type: ADME, organism-based, Canis lupus familiaris; parameters: dose 0.5 mg/kg, route intravenous
[16] = Volume of distribution at steady state in dog plasma at 0.5 mg/kg, iv; assay type: ADME, organism-based, Canis lupus familiaris; parameters: dose 0.5 mg/kg, route intravenous; conditions: read-out: Vdss
[17] = Half life in dog at 0.5 mg/kg, iv; assay type: ADME, organism-based, Canis lupus familiaris; parameters: dose 0.5 mg/kg, route intravenous; conditions: in vivo
[18] = (§1) Oral bioavailability in dog at 0.5 mg/kg; assay type: ADME, organism-based, Canis lupus familiaris; conditions: in vivo
[19] = Drug excretion in iv dosed rat urine; assay type: ADME, organism-based; conditions: read-out: Drug uptake
[20] = Drug excretion in iv dosed rat bile; assay type: ADME, organism-based; conditions: read-out: Drug uptake
[21] = Binding affinity to sigma opioid receptor
[22] = Binding affinity to sodium channel
[23] = Cmax in dog at 0.5 mg/kg, po; assay type: ADME, organism-based, Canis lupus familiaris; parameters: dose 0.5 mg/kg, route oral; conditions: in vivo
[24] = AUC (0 to infinity) in dog at 0.5 mg/kg, po; assay type: ADME, organism-based, Canis lupus familiaris; parameters: time infinity, dose 0.5 mg/kg, route oral; conditions: plasma
[25] = Tmax in dog at 0.5 mg/kg, po; assay type: ADME, organism-based, Canis lupus familiaris; parameters: dose 0.5 mg/kg, route oral; conditions: in vivo
[26] = as §1; assay type: ADME, organism-based, Canis lupus familiaris; conditions: in vivo; remark: listed apart in the source
[27] = Cmax in dog at 0.14 mg/kg, intranasal; assay type: ADME, organism-based, Canis lupus familiaris; parameters: route nasal, dose 0.14 mg/kg; conditions: in vivo, inhaled or intranasal
[28] = AUC (0 to infinity) in dog at 0.14 mg/kg, intranasal; assay type: ADME, organism-based, Canis lupus familiaris; parameters: route nasal, time infinity, dose 0.14 mg/kg; conditions: plasma, inhaled or intranasal
[29] = Tmax in dog at 0.14 mg/kg, intranasal; assay type: ADME, organism-based, Canis lupus familiaris; parameters: dose 0.14 mg/kg; conditions: in vivo, inhaled or intranasal
[30] = Bioavailability in dog at 0.14 mg/kg, intranasal; assay type: ADME, organism-based, Canis lupus familiaris; conditions: in vivo, inhaled or intranasal
[31] = Cmax in dog at 0.14 mg/kg, sublingual; assay type: ADME, organism-based, Canis lupus familiaris; parameters: route sublingual, dose 0.14 mg/kg; conditions: in vivo
[32] = AUC (0 to infinity) in dog at 0.14 mg/kg, sublingual; assay type: ADME, organism-based, Canis lupus familiaris; parameters: time infinity, route sublingual, dose 0.14 mg/kg; conditions: plasma
[33] = Tmax in dog at 0.14 mg/kg, sublingual; assay type: ADME, organism-based, Canis lupus familiaris; parameters: dose 0.14 mg/kg; conditions: in vivo
[34] = Bioavailability in dog at 0.14 mg/kg, sublingual; assay type: ADME, organism-based, Canis lupus familiaris; conditions: in vivo
[35] = Half life in dog at 2.04 mg/kg, sublingual; assay type: ADME, organism-based, Canis lupus familiaris; parameters: dose 2.04 mg/kg; conditions: in vivo
[36] = Half life in dog at 0.67 mg/kg, sublingual; assay type: ADME, organism-based, Canis lupus familiaris; parameters: dose 0.67 mg/kg; conditions: in vivo
[37] = Half life in dog at 0.14 mg/kg, sublingual; assay type: ADME, organism-based, Canis lupus familiaris; parameters: dose 0.14 mg/kg; conditions: in vivo
[38] = Half life in dog at 0.14 mg/kg, intranasal; assay type: ADME, organism-based, Canis lupus familiaris; parameters: dose 0.14 mg/kg; conditions: in vivo, inhaled or intranasal
[39] = Association constant, pKa of the compound; assay type: physicochemical
[40] = Half life in dog at 0.5 mg/kg, po; assay type: ADME, organism-based, Canis lupus familiaris; parameters: dose 0.5 mg/kg, route oral; conditions: in vivo
[41] = Peak plasma concentration in rat at 195 mg, sublingual; assay type: ADME, organism-based
[42] = Peak plasma concentration in rat at 195 mg, po; assay type: ADME, organism-based
[43] = Drug excretion in rat urine assessed as parent compound level at 195 mg; assay type: ADME; conditions: read-out: Drug uptake
[44] = Bioavailability in dog at 2.04 mg/kg, sublingual; assay type: ADME, organism-based, Canis lupus familiaris; conditions: in vivo
[45] = Tmax in dog at 2.04 mg/kg, sublingual; assay type: ADME, organism-based, Canis lupus familiaris; parameters: dose 2.04 mg/kg; conditions: in vivo
[46] = AUC (0 to infinity) in dog at 2.04 mg/kg, sublingual; assay type: ADME, organism-based, Canis lupus familiaris; parameters: time infinity, dose 2.04 mg/kg, route sublingual; conditions: plasma
[47] = Cmax in dog at 2.04 mg/kg, sublingual; assay type: ADME, organism-based, Canis lupus familiaris; parameters: dose 2.04 mg/kg, route sublingual; conditions: in vivo
[48] = Bioavailability in dog at 0.67 mg/kg, sublingual; assay type: ADME, organism-based, Canis lupus familiaris; conditions: in vivo
[49] = Tmax in dog at 0.67 mg/kg, sublingual; assay type: ADME, organism-based, Canis lupus familiaris; parameters: dose 0.67 mg/kg; conditions: in vivo
[50] = AUC (0 to infinity) in dog at 0.67 mg/kg, sublingual; assay type: ADME, organism-based, Canis lupus familiaris; parameters: route sublingual, dose 0.67 mg/kg, time infinity; conditions: plasma
[51] = Cmax in dog at 0.67 mg/kg, sublingual; assay type: ADME, organism-based, Canis lupus familiaris; parameters: dose 0.67 mg/kg, route sublingual; conditions: in vivo
[52] = tested on: Homo sapiens; assay: Reversal of erectile dysfunction in human assessed as visual sexual stimulation at 200 mg, po after 2 hrs post dose; assay type: functional, organism-based
[53] = tested on: Homo sapiens; assay: Reversal of erectile dysfunction in human assessed as non-visual sexual stimulation at 200 mg, po after 2 hrs post dose; assay type: functional, organism-based
[54] = tested on: Homo sapiens; assay: Reversal of erectile dysfunction in human assessed as visual sexual stimulation at 200 mg, po dosed twice with the interval of 7 days measuerd after 2 hrs post-dose on day 7; assay type: functional, organism-based
[55] = tested on: Homo sapiens; assay: Reversal of erectile dysfunction in human assessed as non-visual sexual stimulation at 200 mg, po dosed twice with the interval of 7 days after 2 hrs post dose; assay type: functional, organism-based
[56] = species on record: Homo sapiens; assay: Toxicity in human assessed as minimum effective dose; assay type: organism-based; conditions: in vivo
[57] = Terminal half life in human at 195 mg, po; assay type: ADME, organism-based; conditions: in vivo, read-out: beta t1/2 (converted)
[58] = tested on: Liver microsomes; assay: Intrinsic clearance in rat liver microsome measured per mg of protein; assay type: ADME
[59] = Intrinsic clearance in dog liver microsome measured per mg of protein; assay type: ADME, Canis lupus familiaris; conditions: microsomes
[60] = Fraction unbound in dog plasma; assay type: ADME, cell-free, Canis lupus familiaris
[61] = Fraction unbound in rat plasma; assay type: ADME, cell-free
[62] = Apparent Permeability from basolateral to apical side of MDCK2 cells over expressing MDR1; assay type: ADME, cell-based, Canis lupus familiaris; conditions: dog, MDCK-MDR1; read-out: permeability
[63] = Apparent Permeability from apical to basolateral side of MDCK2 cells over expressing MDR1; assay type: ADME, cell-based, Canis lupus familiaris; conditions: dog, MDCK-MDR1; read-out: permeability
[64] = Clearance in rat at 1 mg/kg, iv; assay type: ADME, organism-based; parameters: dose 1 mg/kg, route intravenous; conditions: in vivo

T2 sequence (P41968 whole entry, the tested form may be a part): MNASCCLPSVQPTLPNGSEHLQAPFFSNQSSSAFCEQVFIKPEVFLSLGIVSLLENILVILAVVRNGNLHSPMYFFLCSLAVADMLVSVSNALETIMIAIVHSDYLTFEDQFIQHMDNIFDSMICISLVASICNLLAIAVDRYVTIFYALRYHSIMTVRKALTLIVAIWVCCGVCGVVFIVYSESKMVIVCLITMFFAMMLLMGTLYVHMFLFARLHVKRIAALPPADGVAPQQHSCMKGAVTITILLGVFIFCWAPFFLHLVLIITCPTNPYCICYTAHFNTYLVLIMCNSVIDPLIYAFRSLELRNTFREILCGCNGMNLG
T4 sequence (P33032 whole entry): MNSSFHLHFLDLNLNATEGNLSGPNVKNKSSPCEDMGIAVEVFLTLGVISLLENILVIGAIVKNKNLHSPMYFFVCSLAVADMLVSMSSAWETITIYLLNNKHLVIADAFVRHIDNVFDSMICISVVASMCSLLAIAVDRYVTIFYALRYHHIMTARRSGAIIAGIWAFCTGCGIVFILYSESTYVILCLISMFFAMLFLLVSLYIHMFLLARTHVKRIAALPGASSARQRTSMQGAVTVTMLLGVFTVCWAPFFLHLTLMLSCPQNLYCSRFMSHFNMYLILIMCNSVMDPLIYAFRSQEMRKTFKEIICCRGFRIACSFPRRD
T1 sequence (P32245 whole entry, the tested form may be a part): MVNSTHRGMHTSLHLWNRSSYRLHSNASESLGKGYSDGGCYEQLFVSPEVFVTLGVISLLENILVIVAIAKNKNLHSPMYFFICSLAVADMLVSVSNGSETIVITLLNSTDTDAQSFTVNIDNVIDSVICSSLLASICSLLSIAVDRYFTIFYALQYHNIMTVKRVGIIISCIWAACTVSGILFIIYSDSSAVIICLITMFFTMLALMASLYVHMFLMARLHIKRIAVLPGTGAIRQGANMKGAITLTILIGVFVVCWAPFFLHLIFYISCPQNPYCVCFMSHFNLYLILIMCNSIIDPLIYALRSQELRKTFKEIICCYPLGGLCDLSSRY
Chain of Voltage-gated inwardly rectifying potassium channel KCNH2 (Q12809 whole entry): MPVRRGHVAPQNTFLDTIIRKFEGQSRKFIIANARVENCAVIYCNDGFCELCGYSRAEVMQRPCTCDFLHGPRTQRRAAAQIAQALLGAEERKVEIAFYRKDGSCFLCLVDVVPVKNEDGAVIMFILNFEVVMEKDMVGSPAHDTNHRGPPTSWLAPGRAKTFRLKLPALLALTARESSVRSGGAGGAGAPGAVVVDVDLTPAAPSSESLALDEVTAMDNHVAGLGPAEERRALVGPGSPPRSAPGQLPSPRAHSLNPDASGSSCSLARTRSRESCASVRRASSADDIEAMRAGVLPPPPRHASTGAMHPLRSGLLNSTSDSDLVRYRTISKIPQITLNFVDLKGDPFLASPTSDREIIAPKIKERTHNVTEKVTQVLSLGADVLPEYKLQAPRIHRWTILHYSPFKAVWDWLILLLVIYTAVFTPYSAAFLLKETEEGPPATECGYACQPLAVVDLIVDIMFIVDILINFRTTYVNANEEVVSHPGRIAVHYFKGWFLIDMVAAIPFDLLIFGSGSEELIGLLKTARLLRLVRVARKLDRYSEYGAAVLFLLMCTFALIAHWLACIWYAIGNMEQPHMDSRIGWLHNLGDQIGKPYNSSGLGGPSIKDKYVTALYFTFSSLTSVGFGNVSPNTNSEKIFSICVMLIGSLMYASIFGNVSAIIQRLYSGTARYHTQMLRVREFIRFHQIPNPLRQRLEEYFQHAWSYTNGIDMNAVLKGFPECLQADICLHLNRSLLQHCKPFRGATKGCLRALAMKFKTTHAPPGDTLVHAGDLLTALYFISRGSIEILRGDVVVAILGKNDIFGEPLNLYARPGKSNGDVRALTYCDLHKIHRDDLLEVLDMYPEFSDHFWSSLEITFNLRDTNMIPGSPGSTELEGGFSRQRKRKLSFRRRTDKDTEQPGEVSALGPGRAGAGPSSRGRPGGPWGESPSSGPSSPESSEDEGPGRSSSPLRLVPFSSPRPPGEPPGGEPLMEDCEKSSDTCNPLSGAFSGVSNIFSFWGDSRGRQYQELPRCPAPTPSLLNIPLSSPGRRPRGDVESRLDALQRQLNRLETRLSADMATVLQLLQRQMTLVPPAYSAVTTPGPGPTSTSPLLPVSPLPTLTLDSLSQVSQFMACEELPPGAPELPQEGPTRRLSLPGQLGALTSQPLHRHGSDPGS

SMILES: C[C@@H]1CN(C(=O)[C@@H]2CN(C(C)(C)C)C[C@H]2c2ccc(F)cc2F)C[C@H](C)[C@@]1(O)c1ccccn1
- EC50 [1]: 46 nM
- EC50 [2]: > 33300 nM
- EC50 [3]: 1170 nM
- Emax [4]: 97%
- Emax [5]: 100%
- Ki [6]: 5840 nM
- Ki [7]: 350 nM

SMILES: CC(C)N1C[C@@H](C(=O)N2C[C@@H](C)[C@](O)(c3ccccc3)[C@@H](C)C2)[C@H](c2ccc(F)cc2F)C1
- EC50 [1]: 69 nM
- Emax [8]: 72%
- EC50 [2]: 11600 nM
- EC50 [3]: 750 nM
- Emax [4]: 100%
- EC50 [9]: 3640 nM
- Emax [5]: 103%
- Ki [6]: > 7880 nM
- logD [10]: 3.2
- microsomal CLint [11]: 128 µL/min/mg
- Ki [7]: 114 nM

SMILES: C[C@@H]1CN(C(=O)[C@@H]2CN(C(C)(C)C)C[C@H]2c2ccc(F)cc2F)C[C@H](C)[C@@]1(O)c1ccccc1.Cl
- Vd [12]: 19 L/kg
- half-life [13]: 2.4 h
- bioavailability [14]: 20%
- clearance [15]: 46 mL/min/kg
- Vd [16]: 17 L/kg
- half-life [17]: 4.2 h
- bioavailability [18]: 1%
- dose excreted [19]: < 3%
- dose excreted [20]: < 1%
- Ki [21]: 330 nM
- Ki [22]: 690 nM
- Cmax [23]: 0.9 ng/mL
- AUC(0-inf) [24]: 1.8 ng·h/mL
- Tmax [25]: 1 h
- bioavailability [26]: 1%
- Cmax [27]: 2.6 ng/mL
- AUC(0-inf) [28]: 12 ng·h/mL
- Tmax [29]: 1.6 h
- bioavailability [30]: 24%
- Cmax [31]: 2.6 ng/mL
- AUC(0-inf) [32]: 17 ng·h/mL
- Tmax [33]: 0.7 h
- bioavailability [34]: 35%
- half-life [35]: 4 h
- half-life [36]: 3.6 h
- half-life [37]: 3.7 h
- half-life [38]: 3.3 h
- pKa [39]: 8.95
- half-life [40]: 1.9 h
- Cmax [41]: 31 ng/mL
- Cmax [42]: 30 ng/mL
- dose excreted [43]: < 2.5%
- bioavailability [44]: 20%
- Tmax [45]: 0.3 h
- AUC(0-inf) [46]: 146 ng·h/mL
- Cmax [47]: 41 ng/mL
- bioavailability [48]: 26%
- Tmax [49]: 0.3 h
- AUC(0-inf) [50]: 64 ng·h/mL
- Cmax [51]: 15 ng/mL
- Activity [52]: Active
- Activity [53]: Active
- Activity [54]: Active
- Activity [55]: Active
- Activity [56]: Toxic
- half-life [57]: 12 h
- EC50 [1]: 12 nM
- Emax [8]: 99%
- EC50 [2]: 1160 nM
- EC50 [3]: 1020 nM
- Emax [4]: 103%
- EC50 [9]: 1980 nM
- Emax [5]: 100%
- logD [10]: 2.8
- microsomal CLint [11]: 45 µL/min/mg
- clearance [58]: 60 µL/min/mg
- clearance [59]: 242 µL/min/mg
- fraction unbound [60]: 0.15
- fraction unbound [61]: 0.07
- Papp B→A [62]: 18 ×10⁻⁶ cm/s
- Papp A→B [63]: 41 ×10⁻⁶ cm/s
- clearance [64]: 89 mL/min/kg
- Ki [7]: 27 nM
